Experimental data taken from ChEMBL document CHEMBL4002616, “Functionalized triazines as potent HCV entry inhibitors” (Bioorg Med Chem Lett, 2017).

Tests used:
[1] = Metabolic stability in human liver microsomes assessed as parent compound remaining after 10 mins; format: ADME, microsome; conditions: read-out: Stability
[2] = (§1) Metabolic stability in rat liver microsomes assessed as parent compound remaining after 10 mins; format: ADME, microsome; conditions: liver microsomes, read-out: Stability
Liver = assay: as §1; format: ADME, microsome; conditions: microsomes, 10 min
[3] = Plasma half life in rat at 2 mg/kg, iv; format: ADME, organism-based
[4] = Clearance in rat at 2 mg/kg, iv; format: ADME, organism-based; conditions: in vivo
[5] = Volume of distribution at steady state in rat at 2 mg/kg, iv or 5 mg/kg, po; format: ADME, organism-based; conditions: in vivo, read-out: Vdss
Rattus norvegicus = assay: AUC in rat at 5 mg/kg, po; format: ADME, organism-based; conditions: in vivo, BLD = below limit of detection

| remaining at 10 min [1] [%] | remaining at 10 min [2] [%] | SMILES | further results |
| --- | --- | --- | --- |
| 74 | 35 | CCCCCNc1nc(Nc2ccc([N+](=O)[O-])cc2)nc(OCC(F)(F)F)n1 |  |
| 100 | 100 | O=C(NS(=O)(=O)c1ccccc1)c1ccc(Nc2nc(NC3(c4ccc(Cl)cc4)CC3)nc(OCC(F)(F)F)n2)cc1 |  |
| 100 | 100 | NCCS(=O)(=O)NC(=O)c1ccc(Nc2nc(NC3(c4ccc(Cl)cc4)CC3)nc(OCC(F)(F)F)n2)cc1 |  |
| 89 | 100 | CN(C)CCS(=O)(=O)NC(=O)c1ccc(Nc2nc(NC3(c4ccc(Cl)cc4)CC3)nc(OCC(F)(F)F)n2)cc1 |  |
| 100 | 96 | CC(C)S(=O)(=O)NC(=O)c1ccc(Nc2nc(NC3(c4ccc(Cl)cc4)CC3)nc(OCC(F)(F)F)n2)cc1 |  |
| 90 |  | O=C(NS(=O)(=O)CCNC(=O)C1CC1)c1ccc(Nc2nc(NC3(c4ccc(Cl)cc4)CC3)nc(OCC(F)(F)F)n2)cc1 | Stability (Liver): Not Active |
| 95 | 100 | CC(=O)NCCS(=O)(=O)NC(=O)c1ccc(Nc2nc(NC3(c4ccc(Cl)cc4)CC3)nc(OCC(F)(F)F)n2)cc1 |  |
| 78 | 97 | O=C(NS(=O)(=O)CCN1CCOCC1)c1ccc(Nc2nc(NC3(c4ccc(Cl)cc4)CC3)nc(OCC(F)(F)F)n2)cc1 |  |
| 100 | 99 | O=C(NS(=O)(=O)c1ccc(F)cc1)c1ccc(Nc2nc(NC3(c4ccc(Cl)cc4)CC3)nc(OCC(F)(F)F)n2)cc1 |  |
| 100 | 85 | CCS(=O)(=O)NC(=O)c1ccc(Nc2nc(NC3(c4ccc(Cl)cc4)CC3)nc(OCC(F)(F)F)n2)cc1 |  |
| 100 | 100 | Cc1ccccc1S(=O)(=O)NC(=O)c1ccc(Nc2nc(NC3(c4ccc(Cl)cc4)CC3)nc(OCC(F)(F)F)n2)cc1 |  |
| 89 | 100 | CC(C)NCCS(=O)(=O)NC(=O)c1ccc(Nc2nc(NC3(c4ccc(Cl)cc4)CC3)nc(OCC(F)(F)F)n2)cc1 |  |
| 92 | 93 | CC(C)(C)OC(=O)NCCS(=O)(=O)NC(=O)c1ccc(Nc2nc(NC3(c4ccc(Cl)cc4)CC3)nc(OCC(F)(F)F)n2)cc1 |  |
| 100 | 85 | CS(=O)(=O)NC(=O)c1ccc(Nc2nc(NC3(c4ccc(Cl)cc4)CC3)nc(OCC(F)(F)F)n2)cc1 |  |
| 99 | 98 | CCN(CC)CCS(=O)(=O)NC(=O)c1ccc(Nc2nc(NC3(c4ccc(Cl)cc4)CC3)nc(OCC(F)(F)F)n2)cc1 |  |
| 99 | 100 | O=C(NS(=O)(=O)CCNCc1ccccc1)c1ccc(Nc2nc(NC3(c4ccc(Cl)cc4)CC3)nc(OCC(F)(F)F)n2)cc1 |  |
| 100 | 85 | O=C(NS(=O)(=O)C1CC1)c1ccc(Nc2nc(NC3(c4ccc(Cl)cc4)CC3)nc(OCC(F)(F)F)n2)cc1 |  |
| 90 | 100 | COC(=O)NCCS(=O)(=O)NC(=O)c1ccc(Nc2nc(NC3(c4ccc(Cl)cc4)CC3)nc(OCC(F)(F)F)n2)cc1 |  |
| 89 | 90 | CC(C)(C)CNCCS(=O)(=O)NC(=O)c1ccc(Nc2nc(NC3(c4ccc(Cl)cc4)CC3)nc(OCC(F)(F)F)n2)cc1 | half-life [3]: 156 min; clearance [4]: 22.5 mL/min/kg; Vd [5]: 0.6 L/kg; AUC (Rattus norvegicus): Bld |
| 100 | 97 | CC(C)NC(=O)NCCS(=O)(=O)NC(=O)c1ccc(Nc2nc(NC3(c4ccc(Cl)cc4)CC3)nc(OCC(F)(F)F)n2)cc1 |  |
| 86 | 76 | CN(C)S(=O)(=O)NC(=O)c1ccc(Nc2nc(NC3(c4ccc(Cl)cc4)CC3)nc(OCC(F)(F)F)n2)cc1 |  |
| 89 | 99 | O=C(O)c1ccc(Nc2nc(NC3(c4ccc(Cl)cc4)CC3)nc(OCC(F)(F)F)n2)cc1 |  |
| 97 | 100 | CNC(=O)NCCS(=O)(=O)NC(=O)c1ccc(Nc2nc(NC3(c4ccc(Cl)cc4)CC3)nc(OCC(F)(F)F)n2)cc1 |  |
| 86 | 84 | CC(C)C(=O)NCCS(=O)(=O)NC(=O)c1ccc(Nc2nc(NC3(c4ccc(Cl)cc4)CC3)nc(OCC(F)(F)F)n2)cc1 |  |
| 96 | 93 | CC(C)(C)NC(=O)NCCS(=O)(=O)NC(=O)c1ccc(Nc2nc(NC3(c4ccc(Cl)cc4)CC3)nc(OCC(F)(F)F)n2)cc1 |  |
| 100 | 73 | CC(C)OC(=O)NCCS(=O)(=O)NC(=O)c1ccc(Nc2nc(NC3(c4ccc(Cl)cc4)CC3)nc(OCC(F)(F)F)n2)cc1 |  |
| 96 | 98 | O=C(NS(=O)(=O)CCN1CCCC1)c1ccc(Nc2nc(NC3(c4ccc(Cl)cc4)CC3)nc(OCC(F)(F)F)n2)cc1 |  |
